According to patent US10717764B2, “Therapeutically active compounds and their methods of use” (Agios Pharmaceuticals, Inc., priority 2013, dated 2020):

How the values were obtained:
[1] = tested on: U87MG cells (2-HG production); assay: Cellular assay, inhibition of 2-HG production in U87MG cells; format: cell-based
Method: (§1) Cells (HT1080 or U87MG) are grown in T125 flasks in DMEM containing 10% FBS, 1× penicillin/streptomycin and 500 ug/mL G418 (present in U87MG cells only). They are harvested by trypsin and seeded into 96 well white bottom plates at a density of 5000 cell/well in 100 ul/well in DMEM with 10% FBS. […] Cells are incubated overnight at 37° C. in 5% CO2. The next day test compounds are made up at 2× the final concentration and 100 ul are added to each cell well. The final concentration of DMSO is 0.2% and the DMSO control wells are plated in row G. The plates are then placed in the incubator for 48 hours. […] The cell plate is placed back in the incubator for another 24 hours. At 72 hours post compound addition, 10 mL/plate of Promega Cell Titer Glo reagent is thawed and mixed. The cell plate is removed from the incubator and allowed to equilibrate to room temperature. Then 100 ul of Promega Cell Titer Glo reagent is added to each well of media. The cell plate is then placed on an orbital shaker for 10 minutes and then allowed to sit at room temperature for 20 minutes. The plate is then read for luminescence with an integration time of 500 ms.

[2] = tested on: HT1080 cells (2-HG production); assay: Cellular assay, inhibition of 2-HG production in HT1080 cells; format: cell-based; settings: Homo sapiens, HT-1080, 48 h
Method: as §1

[3] = inhibition of 2-HG production, U87MG cells, 48 hours

Compound	IC50 [1, 3]	IC50 ([1]; Homo sapiens, U-87 MG, 48 h)	also measured
O=C(NC1CCCCC1)[C@@H](c1ccccc1Cl)N(C(=O)[C@@H]1CCC(=O)N1c1ncccn1)c1cccc(F)c1 [Compound 6]			IC50 [2]: 100 to 500 nM
N#Cc1cccc(N2C(=O)OC[C@H]2C(=O)N(c2cccc3cn[nH]c23)[C@H](C(=O)NC2CCC(F)(F)CC2)c2ccccc2Cl)c1 [Compound 142, (S)—N—((S)-1-(2-Chlorophenyl)-2-(4,4-difluorocyclohexylamino)-2-oxoethyl)-3-(3-cyanophenyl)-N-(1H-indazol-7-yl)-2-oxooxazolidine-4-carboxamide]	< 100 nM		
CS(=O)(=O)c1cc(F)cc(N(C(=O)[C@@H]2CCC(=O)N2c2cc(C#N)ccn2)C(C(=O)NC2CC(F)(F)C2)c2ccccc2Cl)c1 (stereo partly drawn) [Compound 110, (2S)—N-(1-(2-Chlorophenyl)-2-((3,3-difluorocyclobutyl)amino)-2-oxoethyl)-1-(4-cyanopyridin-2-yl)-N-(3-fluoro-5-(methylsulfonyl)phenyl)-5-oxopyrrolidine-2-carboxamide]		< 100 nM	
O=C(N[C@H]1CCC(F)(F)C1)[C@H](c1ccccc1Cl)N(C(=O)[C@@H]1CCC(=O)N1c1ncccn1)c1cccc(F)c1 (stereo in doubt) [Compound 73]		< 100 nM	
(S)—N—((S)-1-(2-Chlorophenyl)-2-((3,3-difluorocyclobutyl)amino)-2-oxoethyl)-1-(4-cyanopyridin-2-yl)-N-(1H-indazol-6-yl)-5-oxopyrrolidine-2-carboxamide [Compound 205]	< 100 nM		
O=C(NC1CC(F)(F)C1)[C@H](c1ccccc1Cl)N(C(=O)[C@@H]1CCC(=O)N1c1ccccn1)c1cccc(F)c1 [Compound 5]		100 to 500 nM	
C[C@]1(O)C[C@@H](C(=O)N(c2cccc(F)c2)[C@H](C(=O)NC2CC(F)(F)C2)c2ccccc2Cl)N(c2cc(C#N)ccn2)C1=O (stereo in doubt) [Compound 183, (2S)—N—((R)-1-(2-chlorophenyl)-2-(3,3-difluorocyclobutylamino)-2-oxoethyl)-1-(4-cyanopyridin-2-yl)-N-(3-fluorophenyl)-4-hydroxy-4-methyl-5-oxopyrrolidine-2-carboxamide]		< 100 nM	

More lines, main results first:

IC50 [1, 3]	IC50 ([1]; Homo sapiens, U-87 MG, 48 h)	Compound	also measured
< 100 nM		(S)—N—((S)-1-(2-Chlorophenyl)-2-(3,3-difluorocyclobutylamino)-2-oxoethyl)-N-(3-cyano-5-fluorophenyl)-3-(3-cyanophenyl)-2-oxooxazolidine-4-carboxamide [Compound 134]	
< 100 nM		(S)-tert-butyl 3-(((S)-1-(2-chlorophenyl)-2-((3,3-difluorocyclobutyl) amino)-2-oxoethyl)(3,5-difluorophenyl)carbamoyl)-5-oxopiperazine-1-carboxylate [Compound 97]	
	< 100 nM	N#Cc1ccnc(N2C(=O)CC[C@H]2C(=O)N(c2cc(F)cc(F)c2)[C@H](C(=O)NC2CC(F)(F)C2)c2ccccc2F)c1 [Compound 208, (S)-1-(4-Cyanopyridin-2-yl)-N—((S)-2-(3,3-difluorocyclobutylamino)-1-(2-fluorophenyl)-2-oxoethyl)-N-(3,5-difluorophenyl)-5-oxopyrrolidine-2-carboxamide]	
< 100 nM		(S)—N—((S)-1-(2-Chlorophenyl)-2-((4,4-difluorocyclohexyl)amino)-2-oxoethyl)-1-(4-cyanopyridin-2-yl)-N-(1H-indazol-6-yl)-5-oxopyrrolidine-2-carboxamide [Compound 136]	
< 100 nM		(S)—N—((S)-1-(2-Chlorophenyl)-2-(3,3-difluorocyclobutylamino)-2-oxoethyl)-1-(3-cyano-phenyl)-N-(1H-indazol-7-yl)-5-oxopyrrolidine-2-carboxamide [Compound 186]	
< 100 nM		(S)—N—((S)-1-(2-Chlorophenyl)-2-((3,3-difluorocyclobutyl)amino)-2-oxoethyl)-1-(4-cyanopyridin-2-yl)-N-(3,5-difluorophenyl)-5-oxopyrrolidine-2-carboxamide [Compound 71]	
